Publication PMC11111408, “Concurrent inhibition of oncogenic and wild-type RAS-GTP for cancer therapy” (Nature, 2024)
Where “and” joins values, the source holds several entries; their conditions need not be identical. Equal entries are not always repeated.

Experiments:
[1] = tested on: Pa16C cells expressing MEK1 mutants; test: Proliferation (Calcein AM) of Pa16C cells expressing MEK1 mutants; format: cell-based, human
WT KRAS = target: T1, WT KRAS (Homo sapiens, UniProt P01116+P62937); test: KRAS–RALGDS RID binding inhibition in vitro; format: biochemical; design: TR-FRET of recombinant KRAS and RALGDS RID: scale not given here; details: for TR-FRET of recombinant KRAS and RALGDS RID: single replicates
T1 construct: His6-TEV (N); made in house; host or cells: E. coli BL21(DE3)

SMILES: CCn1c(-c2cc(N3CCN(C4CC4)CC3)cnc2[C@H](C)OC)c2c3cc(ccc31)-c1csc(n1)C[C@H](NC(=O)[C@H]1[C@@H]3COC[C@@H]31)C(=O)N1CCC[C@H](N1)C(=O)OCC(C)(C)C2 [RMC-7977]
- Proliferation of Pa16C cells expressing MEK1 mutant constructs ([1]; MEK1K57N, inhibitor 100.000 nM): 86.3 and 76.5 and 119.3
- Proliferation of Pa16C cells expressing MEK1 mutant constructs ([1]; MEK1K57N, inhibitor 300.000 nM): 68.3 and 60.7 and 90.3
- Proliferation of Pa16C cells expressing MEK1 mutant constructs ([1]; MEK1Q56P, inhibitor 0.010 nM): 100
- Proliferation of Pa16C cells expressing MEK1 mutant constructs ([1]; MEK1Q56P, inhibitor 0.046 nM): 111.1 and 128.1 and 116.5
- Proliferation of Pa16C cells expressing MEK1 mutant constructs ([1]; MEK1Q56P, inhibitor 11.111 nM): 109 and 97.6 and 77.9
- Proliferation of Pa16C cells expressing MEK1 mutant constructs ([1]; MEK1Q56P, inhibitor 33.333 nM): 99.6 and 83.8 and 68
- Proliferation of Pa16C cells expressing MEK1 mutant constructs ([1]; MEK1Q56P, inhibitor 100.000 nM): 81.8 and 65.9 and 54.2
- Proliferation of Pa16C cells expressing MEK1 mutant constructs ([1]; MEK1Q56P, inhibitor 300.000 nM): 72.6 and 57.1 and 47.4
- Proliferation of Pa16C cells expressing MEK1 mutant constructs ([1]; MEK1S218D/S222D, inhibitor 0.010 nM): 100
- Proliferation of Pa16C cells expressing MEK1 mutant constructs ([1]; MEK1S218D/S222D, inhibitor 0.046 nM): 98 and 111.5 and 106.4 and 100.9
- Proliferation of Pa16C cells expressing MEK1 mutant constructs ([1]; MEK1S218D/S222D, inhibitor 11.111 nM): 89.6 and 94.3 and 98.3 and 90.9
- Proliferation of Pa16C cells expressing MEK1 mutant constructs ([1]; MEK1S218D/S222D, inhibitor 33.333 nM): 86.8 and 90.6 and 104.9 and 86
- Proliferation of Pa16C cells expressing MEK1 mutant constructs ([1]; MEK1S218D/S222D, inhibitor 100.000 nM): 81.6 and 87.3 and 91 and 73.6
- Proliferation of Pa16C cells expressing MEK1 mutant constructs ([1]; MEK1S218D/S222D, inhibitor 300.000 nM): 72.8 and 76 and 71.6 and 55.5
- Proliferation of Pa16C cells expressing MEK1 mutant constructs ([1]; MEK1WT, inhibitor 0.010 nM): 100
- Proliferation of Pa16C cells expressing MEK1 mutant constructs ([1]; MEK1WT, inhibitor 0.046 nM): 97.2 and 123.9 and 122.4 and 107.7
- Proliferation of Pa16C cells expressing MEK1 mutant constructs ([1]; MEK1WT, inhibitor 11.111 nM): 34.9 and 22.9 and 31.4 and 22.8
- Proliferation of Pa16C cells expressing MEK1 mutant constructs ([1]; MEK1WT, inhibitor 33.333 nM): 19.9 and 13.1 and 14.8 and 12.8
- Proliferation of Pa16C cells expressing MEK1 mutant constructs ([1]; MEK1WT, inhibitor 100.000 nM): 14.4 and 9 and 9.5 and 10.2
- Proliferation of Pa16C cells expressing MEK1 mutant constructs ([1]; MEK1WT, inhibitor 300.000 nM): 9.7 and 8 and 8.2 and 8.6
- TR-FRET of recombinant KRAS and RALGDS RID (WT KRAS; RMC-7977 0.005 nM with CYPA): 1.077 and 1.051 and 1.011 and 0.9577
- TR-FRET of recombinant KRAS and RALGDS RID (WT KRAS; RMC-7977 0.046 nM with CYPA): 0.9855 and 0.9772 and 0.9315 and 0.827
- TR-FRET of recombinant KRAS and RALGDS RID (WT KRAS; RMC-7977 0.412 nM with CYPA): 0.9473 and 0.8792 and 0.8105 and 0.8965
- TR-FRET of recombinant KRAS and RALGDS RID (WT KRAS; RMC-7977 1.235 nM with CYPA): 0.966 and 0.9012 and 0.7562 and 0.8255
- TR-FRET of recombinant KRAS and RALGDS RID (WT KRAS; RMC-7977 3.704 nM with CYPA): 0.755 and 0.7635 and 0.8193 and 0.729
- TR-FRET of recombinant KRAS and RALGDS RID (WT KRAS; RMC-7977 11.111 nM with CYPA): 0.531 and 0.5523 and 0.5275 and 0.6425
- TR-FRET of recombinant KRAS and RALGDS RID (WT KRAS; RMC-7977 33.333 nM with CYPA): 0.3432 and 0.2545 and 0.2295 and 0.2898
- TR-FRET of recombinant KRAS and RALGDS RID (WT KRAS; RMC-7977 100.000 nM with CYPA): 0.19 and 0.03225 and 0.05775 and 0.042
- IC50 (WT KRAS; recombinant, with CYPA): 14 nM
